Broadly, the IC50 is the point on the concentration scale where inhibition reaches its midpoint.

From patent US20150175599A1, “FAAH Inhibitors” (Ironwood Pharmaceuticals, Inc., priority 2010, published 2015) come the findings set out here.

Structures are written as SMILES. Read-outs that look alike come from different tables or passages of the source. Where only a bound is given, the exact number is not on record here.

The target in the assay is T1, FAAH (Rattus norvegicus, UniProt P97612).
T1 construct: For the assay of FAAH activity in rat brain membrane (RBM) homogenates; tissue Charles River (animals); host or cells: rat whole brain, membrane fraction
T1 sequence (P97612 1-579): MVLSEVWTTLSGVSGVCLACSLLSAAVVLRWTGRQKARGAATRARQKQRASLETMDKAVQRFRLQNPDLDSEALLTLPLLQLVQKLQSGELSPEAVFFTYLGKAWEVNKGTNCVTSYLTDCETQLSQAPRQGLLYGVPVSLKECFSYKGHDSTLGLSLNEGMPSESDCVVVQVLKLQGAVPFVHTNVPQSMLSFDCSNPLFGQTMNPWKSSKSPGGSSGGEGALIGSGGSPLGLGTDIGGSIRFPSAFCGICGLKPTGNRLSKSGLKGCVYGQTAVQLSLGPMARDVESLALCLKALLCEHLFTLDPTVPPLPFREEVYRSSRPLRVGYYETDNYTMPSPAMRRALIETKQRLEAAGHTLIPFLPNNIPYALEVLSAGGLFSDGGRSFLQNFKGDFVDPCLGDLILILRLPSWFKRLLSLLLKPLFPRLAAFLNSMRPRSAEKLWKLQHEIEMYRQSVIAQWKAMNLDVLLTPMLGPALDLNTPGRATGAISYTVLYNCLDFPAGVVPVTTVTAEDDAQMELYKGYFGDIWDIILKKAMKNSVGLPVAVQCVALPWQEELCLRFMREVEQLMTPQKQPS
Description: FAAH inhibition, rat brain membrane homogenate assay. It counts as biochemical. The protocol: Adult rats (Charles River CD strain, female, 200 g) were anaesthetized with isofluorane and rapidly decapitated. Each brain was quickly removed and chilled in tubes (3 brains per tube) on ice. About 25 mL of “homogenization buffer” (20 mM HEPES buffer, pH 7.0, with 1 mM MgCl2) was added to 15 to 20 g of brain. The brains were homogenized on ice for 1 minute using an Omni GLH homogenizer (Omni International, Marietta, Ga.). The homogenates were then transferred to three centrifuge tubes and centrifuged at 36,500 g for 20 minutes at 4° C. The supernatant was discarded and each pellet was re-suspended in 25 mL homogenization buffer. The re-suspended material was again centrifuged (36,500 g, 20 minutes at 4° C.). Pellets were combined by re-suspension in 10 mL of homogenization buffer and incubated in a 37° C. water bath for 15 minutes. The tubes were then placed on ice for 5 minutes followed by centrifugation at 36,500 g for 20 minutes at 4° C. The supernatant was discarded and the membrane pellets were then re-suspended in 40 mL of “re-suspension buffer” (50 mM Tris-HCl buffer, pH 7.4, containing 1 mM EDTA and 3 mM MgCl2). A Bradford Protein assay was performed to determine protein concentration. The protein was aliquotted into screw cap Cryo tubes each containing −400 μL, flash-frozen in liquid nitrogen and stored at −80° C. until used for the assay. A similar protocol was used to obtain brain membrane homogenates from mice
FAAH activity was assayed in the respective homogenates described herein (Rat brain, Mouse brain or Human brain) with certain of the exemplary compounds described above using a modification of the method of Omeir et al. (1995 Life Sci. 56:1999) and Fowler et al. (1997 J. Pharmacol. Exp. Ther. 283:729). For the assay of FAAH activity in rat brain membrane (RBM) homogenates, RBM homogenates (7 μg protein in 20 μL final volume of 10 mM Tris pH 6.5) were mixed with 180 μL of a mixture of the following: […] unlabelled anandamide (AEA), 0.03 Ci radio labeled anandamide [ethanolamine 1-^3H](40-60 Ci/mmol; product number ART-626, American Radiolabelled Chemicals, St. Louis, Mo.), 1 mg/mL Bovine Serum Albumin (fatty acid-free BSA, electrophoresis grade, Sigma, St. Louis, Mo.), 10 mM Tris-HCl (pH 6.5), and 1 mM EDTA in the presence and absence of test compounds (vehicle was DMSO at a final concentration of 1%) and incubated for 10 minutes at 37° C. Samples were placed on ice to terminate the reactions.
The ^3H-ethanolamine product and un-reacted ^3H-anandamide substrate were then separated by either: (1) using chloroform/methanol extraction or (2) passing the reaction mixture through a glass fiber filter containing activated charcoal. Samples were extracted with chloroform/methanol by adding 0.4 mL of chloroform/methanol (1:1 v/v), vigorously mixing the samples, and separating the aqueous and organic phases by centrifugation. Radioactivity (corresponding to FAAH-catalyzed breakdown of ^3H-anandamide) found in aliquots (0.2 mL) of the aqueous phase was determined by liquid scintillation counting with quench correction. IC50 values were determined as described by Jonsson et al. (2001 Br. J Pharmacol. 133:1263). Alternatively, reactions were purified using a modification of the solid-phase extraction method described by Wilson et al (2003 Anal. Biochem. 318: 270). This method was modified as follows: after reactions were incubated at 37° C. for 10 minutes and chilled on ice, the reaction mixtures were acidified by adding 10 μL of sodium phosphate solution[0.5M (pH 2.0)]. Next, 90 μL aliquots of the acidified reaction mixtures were applied to activated charcoal (that had been previously washed with methanol as described by Wilson et al. (supra)) containing 80 μL of water on top of a glass fiber filter, centrifuged, and the radioactivity in the eluate was counted as described previously by Wilson et al. (supra). […]

Where [1] appears, read: rat brain homogenate, average activity, read-out: Rat Brain Extract FAAH IC50.

Regarding `COc1cc(NC(=O)C(=O)c2c(C)n(Cc3ccc(Cl)cc3)c3ccc(CN(C)C)cc23)ccn1` [Compound 26, 2-(1-(4-chlorobenzyl)-5-((dimethylamino)methyl)-2-methyl-1H-indol-3-yl)-N-(2-methoxypyridin-4-yl)-2-oxoacetamide], under setting [1], the IC50 was in the range of 100 to 1000 nM. Same read-out and setting: to `COc1cc(NC(=O)C(=O)c2c(C)n(Cc3ccc(Cl)cc3)c3ccc(C#N)cc23)ccn1` [Compound 15, 2-(1-(4-chlorobenzyl)-5-cyano-2-methyl-1H-indol-3-yl)-N-(2-methoxypyridin-4-yl)-2-oxoacetamide] belongs less than 100 nM; to `COc1ccc(Cn2c(C)c(C(=O)C(=O)Nc3ccnc(OC)c3)c3cc(OC)c(Cl)cc32)nc1` [Compound 98, 2-(6-chloro-5-methoxy-1-((5-methoxypyridin-2-yl)methyl)-2-methyl-1H-indol-3-yl)-N-(2-methoxypyridin-4-yl)-2-oxoacetamide], less than 100 nM.

`COc1ccc2c(c1)c(C(=O)C(=O)Nc1ccnc(O)c1)c(C)n2Cc1ccc(Cl)cc1` [Compound 50, 2-(1-(4-chlorobenzyl)-5-methoxy-2-methyl-1H-indol-3-yl)-N-(2-hydroxypyridin-4-yl)-2-oxoacetamide]: the half-maximal inhibitory concentration (IC50) under setting [1] was 1000 to 10000 nM.

For `COc1cc(NC(=O)C(=O)c2c(C)n(Cc3ccc(Cl)cn3)c3ncc(C)cc23)ccn1` [Compound 75, (1-((5-chloropyridin-2-yl)methyl)-2,5-dimethyl-1H-pyrrolo[2,3-b]pyridin-3-yl)-N-(2-methoxypyridin-4-yl)-2-oxoacetamide], under setting [1], the IC50 is less than 100 nM.

For `COc1cc(NC(=O)C(=O)c2c(C)n(Cc3ccc(Cl)cc3)c3ccc(N(C)C(=O)OC(C)(C)C)cc23)ccn1` [Compound 7, Tert-butyl(1-(4-chlorobenzyl)-3-(2-((2-methoxypyridin-4-yl)amino)-2-oxoacetyl)-2-methyl-1H-indol-5-yl)(methyl)carbamate], the IC50 under setting [1] fell in the range of 100 to 1000 nM. As to `COc1cc(NC(=O)C(=O)c2c(C)n(Cc3ccc(Cl)cc3)c3ccc(C(F)(F)F)cc23)ccn1` [Compound 21, 2-(1-(4-chlorobenzyl)-2-methyl-5-(trifluoromethyl)-1H-indol-3-yl)-N-(2-methoxypyridin-4-yl)-2-oxoacetamide], under setting [1], the IC50 was less than 100 nM. With `COc1cc(NC(=O)C(=O)c2c(C)n(Cc3ncc(Cl)cc3F)c3ccc(C)cc23)ccn1` [Compound 33, 2-(1-((5-chloro-3-fluoropyridin-2-yl)methyl)-2,5-dimethyl-1H-indol-3-yl)-N-(2-methoxypyridin-4-yl)-2-oxoacetamide], the IC50 under setting [1] was less than 100 nM. Regarding `COc1cnc2c(c1)c(C(=O)C(=O)Nc1ccnc(OC)c1)c(C)n2Cc1ncc(Cl)cc1F` [Compound 34, 2-(1-((5-chloro-3-fluoropyridin-2-yl)methyl)-5-methoxy-2-methyl-1H-pyrrolo[2,3-b]pyridin-3-yl)-N-(2-methoxypyridin-4-yl)-2-oxoacetamide], under setting [1], the IC50 was less than 100 nM.

For the molecule `COc1cc(NC(=O)C(=O)c2c(C)n(Cc3ccc(Cl)cc3)c3ccc(CO)cc23)ccn1` [Compound 8, 2-(1-(4-chlorobenzyl)-5-(hydroxymethyl)-2-methyl-1H-indol-3-yl)-N-(2-methoxypyridin-4-yl)-2-oxoacetamide], the IC50 under setting [1] was less than 100 nM.

Turning to `COc1ccc2c(c1)c(C(=O)C(=O)Nc1cc(Cl)nc(OC)c1)c(C)n2Cc1ccc(Cl)cc1` [Compound 47, N-(2-chloro-6-methoxypyridin-4-yl)-2-(1-(4-chlorobenzyl)-5-methoxy-2-methyl-1H-indol-3-yl)-2-oxoacetamide], under setting [1], the IC50 was less than 100 nM. In the case of `COc1ccc2c(c1)c(C(=O)C(=O)Nc1ccnc(OC)c1)c(C)n2Cc1ncc(Cl)cc1OC` [Compound 100, 2-(1-((5-chloro-3-methoxypyridin-2-yl)methyl)-5-methoxy-2-methyl-1H-indol-3-yl)-N-(2-methoxypyridin-4-yl)-2-oxoacetamide], under setting [1], the half-inhibitory concentration (IC50) is less than 100 nM. `COc1cc(NC(=O)C(=O)c2c(C)n(Cc3ccc(Cl)cc3)c3ccc(NC(C)=O)cc23)ccn1` [Compound 22, 2-(5-acetamido-1-(4-chlorobenzyl)-2-methyl-1H-indol-3-yl)-N-(2-methoxypyridin-4-yl)-2-oxoacetamide]: the IC50 under setting [1] was 100 to 1000 nM. For `COc1cc(NC(=O)C(=O)c2c(C)n(Cc3ncc(Cl)cc3Cl)c3cc(F)c(OC)cc23)ccn1` [Compound 13, 2-(1-((3,5-dichloropyridin-2-yl)methyl)-6-fluoro-5-methoxy-2-methyl-1H-indol-3-yl)-N-(2-methoxypyridin-4-yl)-2-oxoacetamide], under setting [1], the IC50 was less than 100 nM. For the molecule `COc1cc(NC(=O)C(=O)c2c(C)n(Cc3ccc(Cl)cn3)c3cc(OC)c(Cl)cc23)ccn1` [Compound 67, 2-(5-chloro-1-((5-chloropyridin-2-yl)methyl)-6-methoxy-2-methyl-1H-indol-3-yl)-N-(2-methoxypyridin-4-yl)-2-oxoacetamide], the IC50 under setting [1] is less than 100 nM. Still for that read-out and setting: to `COc1cc(NC(=O)C(=O)c2c(C)n(Cc3ncc(Cl)cc3F)c3cc(F)c(OC)cc23)ccn1` [Compound 99, 2-(1-((5-chloro-3-fluoropyridin-2-yl)methyl)-6-fluoro-5-methoxy-2-methyl-1H-indol-3-yl)-N-(2-methoxypyridin-4-yl)-2-oxoacetamide] belongs less than 100 nM; to `COc1cc(NC(=O)C(=O)c2c(C)n(Cc3ccc(Cl)cn3)c3ccc(C)cc23)ccn1` [Compound 61, 2-(1-((5-chloropyridin-2-yl)methyl)-2,5-dimethyl-1H-indol-3-yl)-N-(2-methoxypyridin-4-yl)-2-oxoacetamide], less than 100 nM.

`COc1cc(NC(=O)C(=O)c2c(C)n(Cc3ncc(F)cc3F)c3ccc(C)cc23)ccn1` [Compound 88, 2-(1-((3,5-difluoropyridin-2-yl)methyl)-2,5-dimethyl-1H-indol-3-yl)-N-(2-methoxypyridin-4-yl)-2-oxoacetamide] came in with an IC50 of less than 100 nM. On to `COc1cnc2c(c1)c(C(=O)C(=O)Nc1ccnc(OC)c1)c(C)n2Cc1ccc(Cl)cc1` [Compound 38, 2-(1-(4-chlorobenzyl)-5-methoxy-2-methyl-1H-pyrrolo[2,3-b]pyridin-3-yl)-N-(2-methoxypyridin-4-yl)-2-oxoacetamide], for which, under setting [1], the IC50 is less than 100 nM. On the same count and under the same terms, to `C=Cc1ccc2c(c1)c(C(=O)C(=O)Nc1ccnc(OC)c1)c(C)n2Cc1ccc(Cl)cc1` [Compound 27, 2-(1-(4-chlorobenzyl)-2-methyl-5-vinyl-1H-indol-3-yl)-N-(2-methoxypyridin-4-yl)-2-oxoacetamide] belongs less than 100 nM.
